Assay results reported in paper PMC10825183 (Nature Communications, 2024).

Key:
[1] = test system: native If current in sinoatrial node myocytes; conditions: read-out: affinity value for cAMP; ref DiFrancesco and Tortora, Nature, 1991; cited from earlier work
rbHCN4 full-length (FL) = target: T1, rbHCN4 full-length (FL) (Oryctolagus cuniculus, UniProt Q9TV66); assay: Whole-cell patch clamp in HEK293T cells, HCN4 full length; format: cell-based, rabbit
T1 construct: The cDNA encoding the full-length rabbit HCN4 was previously cloned in pCI (Promega) mammalian expression vector; expressed in transfected cells; host or cells: HEK293T
T1 sequence (Q9TV66 1-1175): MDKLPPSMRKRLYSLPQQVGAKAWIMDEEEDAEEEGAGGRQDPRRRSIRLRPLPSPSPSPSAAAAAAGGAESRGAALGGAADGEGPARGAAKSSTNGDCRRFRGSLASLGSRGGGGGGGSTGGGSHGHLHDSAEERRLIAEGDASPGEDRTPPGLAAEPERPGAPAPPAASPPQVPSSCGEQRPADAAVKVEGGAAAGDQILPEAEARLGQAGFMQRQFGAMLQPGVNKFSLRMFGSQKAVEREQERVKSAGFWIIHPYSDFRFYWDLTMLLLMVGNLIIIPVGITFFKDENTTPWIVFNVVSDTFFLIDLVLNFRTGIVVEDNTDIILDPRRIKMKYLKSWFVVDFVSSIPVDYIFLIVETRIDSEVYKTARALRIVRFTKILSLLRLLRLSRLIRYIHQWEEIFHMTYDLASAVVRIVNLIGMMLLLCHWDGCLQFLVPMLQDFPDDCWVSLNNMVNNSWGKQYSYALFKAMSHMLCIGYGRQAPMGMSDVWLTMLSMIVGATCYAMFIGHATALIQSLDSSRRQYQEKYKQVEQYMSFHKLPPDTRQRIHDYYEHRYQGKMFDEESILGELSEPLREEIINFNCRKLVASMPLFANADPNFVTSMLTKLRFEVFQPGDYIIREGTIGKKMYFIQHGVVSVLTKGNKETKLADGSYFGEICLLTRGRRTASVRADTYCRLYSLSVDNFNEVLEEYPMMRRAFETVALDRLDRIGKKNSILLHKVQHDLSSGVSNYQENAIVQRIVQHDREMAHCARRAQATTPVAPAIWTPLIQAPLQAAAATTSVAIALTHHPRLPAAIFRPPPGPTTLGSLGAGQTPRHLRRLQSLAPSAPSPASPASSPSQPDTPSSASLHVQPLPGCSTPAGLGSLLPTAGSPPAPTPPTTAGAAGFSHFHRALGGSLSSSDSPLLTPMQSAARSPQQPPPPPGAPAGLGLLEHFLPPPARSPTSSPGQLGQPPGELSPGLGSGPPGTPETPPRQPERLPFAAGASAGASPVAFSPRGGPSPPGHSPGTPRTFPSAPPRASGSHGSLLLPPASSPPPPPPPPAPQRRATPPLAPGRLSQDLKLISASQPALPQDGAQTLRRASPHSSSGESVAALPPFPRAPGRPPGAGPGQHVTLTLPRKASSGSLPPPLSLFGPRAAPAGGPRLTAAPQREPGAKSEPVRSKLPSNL

rbHCN4 ΔE (1-733) = target: T2, rbHCN4 ΔE (1-733) (Oryctolagus cuniculus, UniProt Q9TV66); assay: Whole-cell patch clamp in HEK293T cells, HCN4 ΔE; format: cell-based, rabbit
T2 construct: rbHCN4 ΔE (1-733); expressed in transfected cells; host or cells: HEK293T
T2 sequence (Q9TV66 1-733): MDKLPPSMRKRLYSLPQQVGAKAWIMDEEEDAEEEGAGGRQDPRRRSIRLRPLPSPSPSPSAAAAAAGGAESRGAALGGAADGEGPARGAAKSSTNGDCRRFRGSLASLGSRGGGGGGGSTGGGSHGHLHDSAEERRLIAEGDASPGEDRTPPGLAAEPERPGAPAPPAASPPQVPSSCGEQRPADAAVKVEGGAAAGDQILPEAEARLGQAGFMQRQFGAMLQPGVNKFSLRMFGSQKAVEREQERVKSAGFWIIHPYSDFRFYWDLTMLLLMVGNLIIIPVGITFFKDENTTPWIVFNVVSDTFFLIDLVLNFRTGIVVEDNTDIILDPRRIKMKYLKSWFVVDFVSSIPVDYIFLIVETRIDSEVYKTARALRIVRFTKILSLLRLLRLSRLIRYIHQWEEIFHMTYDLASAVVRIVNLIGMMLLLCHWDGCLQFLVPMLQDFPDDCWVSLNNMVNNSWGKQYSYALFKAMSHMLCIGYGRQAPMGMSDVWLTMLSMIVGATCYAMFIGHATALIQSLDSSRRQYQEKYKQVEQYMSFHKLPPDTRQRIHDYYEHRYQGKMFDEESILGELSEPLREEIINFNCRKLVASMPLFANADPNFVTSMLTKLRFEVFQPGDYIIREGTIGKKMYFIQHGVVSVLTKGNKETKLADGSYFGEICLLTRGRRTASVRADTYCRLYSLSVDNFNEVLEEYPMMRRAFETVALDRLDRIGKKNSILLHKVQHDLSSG

[2] = 5 µM cAMP in pipette, mean ± SEM
[3] = Hill fit of shift in V1/2 vs cAMP concentration

SMILES: Nc1ncnc2c1ncn2[C@@H]1O[C@@H]2COP(=O)(O)O[C@H]2[C@H]1O [cAMP, Adenosine 3′,5′-cyclic monophosphate]
- EC50 [1]: 0.2 µM
- V1/2 with cAMP (rbHCN4 full-length (FL); 1 µM cAMP in pipette, mean ± SEM): -89.9 ± 1.6 mV
- k (inverse slope factor) with cAMP (rbHCN4 full-length (FL); 1 µM cAMP, mean ± SEM): 11.7 ± 1 mV
- V1/2 with cAMP (rbHCN4 full-length (FL); [2]): -87.5 ± 0.7 mV
- k (inverse slope factor) with cAMP (rbHCN4 full-length (FL); 5 µM cAMP, mean ± SEM): 10.6 ± 0.4 mV
- V1/2 + cAMP (rbHCN4 full-length (FL); 15 µM cAMP in pipette, mean ± SEM): -79.3 ± 0.9 mV
- k + cAMP (rbHCN4 full-length (FL); 15 µM cAMP, mean ± SEM): 10.2 ± 1 mV
- Hill coefficient (nH) (rbHCN4 full-length (FL); [3]): 0.9
- V1/2 with cAMP (rbHCN4 ΔE (1-733); [2]): -97.2 ± 0.6 mV
- k (inverse slope factor) with cAMP (rbHCN4 ΔE (1-733); 5 µM cAMP, mean ± SEM): 9.1 ± 1.2 mV
- V1/2 + cAMP (rbHCN4 ΔE (1-733); 60 µM cAMP in pipette, mean ± SEM): -81.1 ± 0.8 mV
- k + cAMP (rbHCN4 ΔE (1-733); 60 µM cAMP, mean ± SEM): 9.8 ± 0.8 mV
- Hill coefficient (nH) (rbHCN4 ΔE (1-733); [3]): 0.9
